Legend:
Vero C1008 = assay: (§1) Cytotoxicity in African green monkey Vero E6 cells […] by Neutral red release assay; assay type: toxicity, cell-based; conditions: chlorocebus sabaeus, vero c1008, 600 h; 600 h
[1] = molecular target: Replicase polyprotein 1ab (Severe acute respiratory syndrome coronavirus 2, UniProt P0DTD1); assay: Inhibition of SARS CoV-2 MPro using MCA-AVLQSGFR-Lys(Dnp)-Lys-NH2 as substrate preincubated for 10 mins followed by substrate addition measured for 10 mins by FRET assay
SARS-CoV-2 [2] = assay: Antiviral activity against SARS-CoV-2 infected in African green monkey Vero E6 cells assessed as reduction in viral replication preincubated with compound followed by viral infection for 1 hr measured after 25 to 26 hrs by ELISA; assay type: functional, organism-based, Severe acute respiratory syndrome coronavirus 2
[3] = as §1; assay type: toxicity, cell-based, Vero C1008; conditions: chlorocebus sabaeus, Vero E6 cells
SARS-CoV-2 [4] = assay: Antiviral activity against SARS-CoV-2 USA_WA1/2020 infected in African green monkey Vero E6 cells expressing hACE2 assessed as reduction in virus-induced cytopathic effect incubated for 3 days in presence of P-gp efflux inhibitor by Cell Titer-Glo assay; assay type: functional, organism-based; conditions: Severe acute respiratory syndrome coronavirus 2, USA_WA1/2020, Vero C1008, 72 h
SARS-CoV-2 [5] = assay: Antiviral activity against wild-type SARS CoV-2 infected in African green monkey Vero E6 cells assessed as reduction in viral plaque incubated for 3 days; assay type: functional, organism-based; conditions: Severe acute respiratory syndrome coronavirus 2, Vero C1008, 72 h
SARS-CoV-2 [6] = assay: Antiviral activity against SARS CoV-2 Omicron […] infected in African green monkey Vero E6 cells assessed as reduction in viral plaque incubated for 3 days; assay type: functional, organism-based; conditions: Severe acute respiratory syndrome coronavirus 2, Vero C1008, 72 h
SARS-CoV-2 [7] = assay: Antiviral activity against SARS CoV-2 Alpha infected in African green monkey Vero E6 cells assessed as reduction in viral plaque incubated for 3 days; assay type: functional, organism-based; conditions: Severe acute respiratory syndrome coronavirus 2, Alpha, Vero C1008, 72 h
SARS-CoV-2 [8] = assay: Antiviral activity against SARS CoV-2 Delta infected in African green monkey Vero E6 cells assessed as reduction in viral plaque incubated for 3 days; assay type: functional, organism-based; conditions: Severe acute respiratory syndrome coronavirus 2, Delta, Vero C1008, 72 h
[9] = Cmax in Sprague-Dawley rat at 10 mg/kg, po measured for 0.083 to 24 hrs by LC-MS/MS analysis; assay type: ADME, organism-based; set-up: time lower 0.083 hrs, dose 10 mg/kg, time upper 24 hrs, route po; conditions: in vivo
[10] = Oral bioavailability in Sprague-Dawley rat at 10 mg/kg measured for 0.083 to 24 hrs by LC-MS/MS analysis; assay type: ADME, organism-based; conditions: in vivo, time 0.083-24 hrs
[11] = AUC (0 to t) in Sprague-Dawley rat at 2 mg/kg, iv measured for 0.033 to 24 hrs by LC-MS/MS analysis; assay type: ADME, organism-based; set-up: time lower 0.033 hrs, dose 2 mg/kg, time upper 24 hrs, route iv; conditions: in vivo
[12] = Tmax in Sprague-Dawley rat at 2 mg/kg, iv measured for 0.033 to 24 hrs by LC-MS/MS analysis; assay type: ADME, organism-based; conditions: in vivo, time 0.033-24 hrs
[13] = AUC (0 to infinity) in Sprague-Dawley rat at 2 mg/kg, iv measured for 0.033 to 24 hrs by LC-MS/MS analysis; assay type: ADME, organism-based; set-up: time 0.033-24 hrs, dose 2 mg/kg, route iv; conditions: in vivo
[14] = Clearance in Sprague-Dawley rat at 2 mg/kg, iv measured for 0.033 to 24 hrs by LC-MS/MS analysis; assay type: ADME, organism-based; conditions: in vivo, time 0.033-24 hrs
[15] = Tmax in Sprague-Dawley rat at 10 mg/kg, po measured for 0.083 to 24 hrs by LC-MS/MS analysis; assay type: ADME, organism-based; conditions: in vivo, time 0.083-24 hrs
[16] = Half life in Sprague-Dawley rat at 2 mg/kg, iv measured for 0.033 to 24 hrs by LC-MS/MS analysis; assay type: ADME, organism-based; conditions: in vivo, time 0.033-24 hrs
[17] = Cmax in Sprague-Dawley rat at 2 mg/kg, iv measured for 0.033 to 24 hrs by LC-MS/MS analysis; assay type: ADME, organism-based; set-up: time upper 24 hrs, dose 2 mg/kg, time lower 0.033 hrs, route iv; conditions: in vivo
[18] = AUC (0 to infinity) in Sprague-Dawley rat at 10 mg/kg, po measured for 0.083 to 24 hrs by LC-MS/MS analysis; assay type: ADME, organism-based; set-up: time 0.083-24 hrs, dose 10 mg/kg, route po; conditions: in vivo
[19] = Volume of distribution in Sprague-Dawley rat at 2 mg/kg, iv measured for 0.033 to 24 hrs by LC-MS/MS analysis; assay type: ADME, organism-based; conditions: in vivo, time 0.033-24 hrs
[20] = AUC (0 to t) in Sprague-Dawley rat at 10 mg/kg, po measured for 0.083 to 24 hrs by LC-MS/MS analysis; assay type: ADME, organism-based; set-up: time 0.083-24 hrs, dose 10 mg/kg, route po; conditions: in vivo
[21] = Half life in Sprague-Dawley rat at 10 mg/kg, po measured for 0.083 to 24 hrs by LC-MS/MS analysis; assay type: ADME, organism-based; conditions: in vivo, time 0.083-24 hrs
[22] = Severe acute respiratory syndrome coronavirus 2, Vero C1008

Row | SMILES | IC50 [1] | EC50 (SARS-CoV-2 [2]; [22]) | CC50 at 600 h [3] | also measured
1 | COc1ccncc1C(=O)N1CCN(c2ccc(Cl)c(Cl)c2)[C@H](C(=O)NCc2ccc(F)s2)C1 [listing 1 of 2 here] | 350 nM | – | – | CC50 (Vero C1008): 100000 nM; EC50 (SARS-CoV-2 [2]; vero e6): 1400 nM
2 | COc1ccncc1C(=O)N1CCN(c2ccc(Cl)c(Cl)c2)[C@H](C(=O)Nc2cc(F)c(OC)c(F)c2)C1 | 430 nM | 3100 nM | – | –
3 | COc1cc(OC)c(NC(=O)[C@@H]2CN(C(=O)c3cnccc3OC)CCN2c2ccc(Cl)c(Cl)c2)cc1F | 400 nM | 1500 nM | 79000 nM | –
4 | O=C(NCc1cccs1)[C@@H]1CN(C(=O)c2cccnc2)CCN1c1ccc(Cl)c(Cl)c1 | – | 1300 nM | 100000 nM | –
5 | COc1ccncc1C(=O)N1CCN(c2ccc(Cl)c(Cl)c2)[C@H](C(=O)Nc2ccc(OC(F)F)cc2)C1 | 480 nM | – | – | –
6 | O=C(NCc1cccs1)[C@@H]1CN(C(=O)c2cnccc2Cl)CCN1c1ccc(Cl)c(Cl)c1 | 320 nM | 3100 nM | > 100000 nM | –
7 | COc1ccc(NC(=O)[C@@H]2CN(C(=O)c3cccnc3)CCN2c2ccc(Cl)c(Cl)c2)cc1 | 200 nM | 740 nM | 95000 nM | –
8 | O=C(NCc1ccc(F)s1)[C@@H]1CN(C(=O)c2cccnc2)CCN1c1ccc(Cl)c(Cl)c1 | 400 nM | 1500 nM | 79000 nM | –
9 | O=C(NCc1cccs1)[C@@H]1CN(C(=O)c2cncc(F)c2)CCN1c1ccc(Cl)c(Cl)c1 | 350 nM | 1500 nM | > 100000 nM | –
10 | COc1cccc2[nH]c(C(=O)N[C@@H](CC(C)C)C(=O)N[C@H](C[C@@H]3CCNC3=O)C(=O)CO)cc12 | – | – | – | EC50 (SARS-CoV-2 [4]): 220 nM
11 | O=C(NCc1cccs1)[C@@H]1CN(C(=O)c2cncc3cc[nH]c23)CCN1c1ccc(Cl)c(Cl)c1 [listing 1 of 2 here] | 210 nM | – | – | EC50 (SARS-CoV-2 [5]): 240 nM; CC50 (Vero C1008): 42000 nM; EC50 (SARS-CoV-2 [6]): 80 nM; EC50 (SARS-CoV-2 [7]): 130 nM; EC50 (SARS-CoV-2 [8]): 220 nM; EC50 (SARS-CoV-2 [2]; vero e6): 530 nM
12 | O=C(NCc1cccs1)[C@@H]1CN(C(=O)c2cncc(O)c2)CCN1c1ccc(Cl)c(Cl)c1 | 440 nM | 15000 nM | – | –
13 | O=C(NCc1cccs1)[C@@H]1CN(C(=O)c2cncc3cc[nH]c23)CCN1c1ccc(Cl)c(Cl)c1 [listing 2 of 2 here] | 250 nM | 540 nM | 36000 nM | –
14 | O=C(NS(=O)(=O)c1cccs1)[C@@H]1CN(C(=O)c2cccnc2)CCN1c1ccc(Cl)c(Cl)c1 | 9500 nM | – | – | –
15 | CC(C)(C)[C@H](NC(=O)C(F)(F)F)C(=O)N1C[C@H]2[C@@H]([C@H]1C(=O)N[C@H](C#N)C[C@@H]1CCNC1=O)C2(C)C | – | – | > 100000 nM | –
16 | O=C(NCc1ccc(Br)s1)[C@@H]1CN(C(=O)c2cccnc2)CCN1c1ccc(Cl)c(Cl)c1 | 1800 nM | – | – | –
17 | O=C(NCc1cccs1)[C@@H]1CN(C(=O)c2cc(=O)[nH]c3ccccc23)CCN1c1ccc(Cl)c(Cl)c1 | 270 nM | 5400 nM | > 100000 nM | –
18 | COc1ccncc1C(=O)N1CCN(c2ccc(Cl)c(Cl)c2)[C@H](C(=O)NCc2cccs2)C1 | – | 780 nM | > 100000 nM | –
19 | COc1ccncc1C(=O)N1CCN(c2ccc(Cl)c(Cl)c2)[C@H](C(=O)NCc2cccs2)C1.Cl | 170 nM | – | – | Cmax [9]: 81.6 ng/mL; bioavailability [10]: 10.5%; AUC(0-t) [11]: 428 ng·h/mL; Tmax [12]: 1.8 min; AUC(0-inf) [13]: 431 ng·h/mL; clearance [14]: 77.4 mL/min/kg; Tmax [15]: 30 min; half-life [16]: 18.6 min; Cmax [17]: 1240 ng/mL; AUC(0-inf) [18]: 226 ng·h/mL; EC50 (SARS-CoV-2 [2]; vero e6): 530 nM; Vd [19]: 2.07 L/kg; AUC(0-t) [20]: 202 ng·h/mL; half-life [21]: 86.4 min
20 | CN(Cc1cccs1)C(=O)[C@@H]1CN(C(=O)c2cccnc2)CCN1c1ccc(Cl)c(Cl)c1 | 1300 nM | – | – | –
21 | COc1ccncc1C(=O)N1CCN(c2ccc(Cl)c(Cl)c2)[C@H](C(=O)NCc2ccc(F)s2)C1 [listing 2 of 2 here] | 410 nM | 1500 nM | > 100000 nM | –

Source: ChEMBL document CHEMBL5375961, “Design, Synthesis, and Biological Evaluation of Trisubstituted Piperazine Derivatives as Noncovalent Severe Acute Respiratory Syndrome Coronavirus 2 Main Protease Inhibitors with Improved Antiviral Activity and Favorable Druggability” (J Med Chem, 2023)
